Measured values from patent US20250134869A1, “Pyrrolo[2,3-d]pyrimidinyl, Pyrrolo[2,3-b]pyrazinyl and Pyrrolo[2,3-d]pyridinyl Acryla-mides” (Pfizer Inc, priority 2021, published 2025).
Where two headings read alike, the source gives them in different places.

Target: JAK3 enzyme (Homo sapiens (Human), UniProt P52333)
Assay: JAK Caliper Enzyme Assay at 4 μM or 1 mM ATP
Format: biochemical
[1] = read-out: JAK3 (4 μM ATP) IC50, 4 μM ATP
[2] = read-out: JAK3 (1 mM ATP) IC50, 1 mM ATP

Sequence of JAK3 enzyme (P52333 whole entry, species assumed): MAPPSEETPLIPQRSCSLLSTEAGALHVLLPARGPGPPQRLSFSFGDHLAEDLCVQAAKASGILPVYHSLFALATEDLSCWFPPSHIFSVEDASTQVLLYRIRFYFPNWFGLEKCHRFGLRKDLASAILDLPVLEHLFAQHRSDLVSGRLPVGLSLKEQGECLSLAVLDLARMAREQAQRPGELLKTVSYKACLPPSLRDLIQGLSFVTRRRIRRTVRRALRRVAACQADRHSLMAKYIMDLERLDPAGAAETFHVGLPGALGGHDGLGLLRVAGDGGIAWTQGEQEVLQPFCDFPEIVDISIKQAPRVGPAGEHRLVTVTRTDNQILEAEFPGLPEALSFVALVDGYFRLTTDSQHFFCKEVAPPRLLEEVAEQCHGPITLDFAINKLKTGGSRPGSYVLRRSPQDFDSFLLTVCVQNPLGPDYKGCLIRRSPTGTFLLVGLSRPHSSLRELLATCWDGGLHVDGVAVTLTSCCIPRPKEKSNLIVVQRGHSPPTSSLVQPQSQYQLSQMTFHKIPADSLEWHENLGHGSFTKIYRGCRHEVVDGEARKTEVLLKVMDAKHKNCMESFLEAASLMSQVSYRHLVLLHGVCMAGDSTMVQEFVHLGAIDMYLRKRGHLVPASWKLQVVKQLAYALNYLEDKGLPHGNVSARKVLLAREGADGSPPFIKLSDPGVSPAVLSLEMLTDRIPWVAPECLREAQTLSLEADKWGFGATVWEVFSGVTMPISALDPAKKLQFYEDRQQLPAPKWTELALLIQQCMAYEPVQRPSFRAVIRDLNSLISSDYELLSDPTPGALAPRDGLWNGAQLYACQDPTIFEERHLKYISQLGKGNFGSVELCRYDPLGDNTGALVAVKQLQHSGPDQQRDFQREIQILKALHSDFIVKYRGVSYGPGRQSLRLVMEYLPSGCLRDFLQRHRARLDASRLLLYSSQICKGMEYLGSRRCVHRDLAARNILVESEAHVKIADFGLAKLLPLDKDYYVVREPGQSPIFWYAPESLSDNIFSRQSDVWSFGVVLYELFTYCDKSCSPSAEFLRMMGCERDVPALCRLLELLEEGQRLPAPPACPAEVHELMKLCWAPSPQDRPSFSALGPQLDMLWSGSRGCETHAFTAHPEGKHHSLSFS

| SMILES | IC50 [1] | IC50 [2] |
| --- | --- | --- |
| C=CC(=O)N(C)C1CN(c2cnc3[nH]cc(C(=O)NC(C)C)c3n2)C1 [Example 187, 2-{3-[acryloyl(methyl)amino]azetidin-1-yl}-N-(propan-2-yl)-5H-pyrrolo[2,3-b]pyrazine-7-carboxamide] | 0.6 nM | 27.2 nM |
| C=CC(=O)N1CC(Nc2cnc3[nH]cc(C(=O)NC(C)C)c3n2)C1 [Example 188, 2-[(1-acryloylazetidin-3-yl)amino]-N-(propan-2-yl)-5H-pyrrolo[2,3-b]pyrazine-7-carboxamide] | 0.3 nM | 8.8 nM |
| C=CC(=O)N1CC[C@@H](CNc2cnc3[nH]cc(C(=O)NC(C)C)c3n2)C1 [Example 191, 2-({[(3S)-1-acryloylpyrrolidin-3-yl]methyl}amino)-N-(propan-2-yl)-5H-pyrrolo[2,3-b]pyrazine-7-carboxamide] | 1.5 nM | 138 nM |
| C=CC(=O)NC1CN(c2cnc3[nH]ccc3n2)C1 [Example 192, N-[1-(5H-pyrrolo[2,3-b]pyrazin-2-yl)azetidin-3-yl]prop-2-enamide] | 272 nM | – |
| C=CC(=O)N1CCC(CNc2cnc3[nH]cc(C(=O)NC(C)C)c3n2)CC1 [Example 193, 2-{[(1-acryloylpiperidin-4-yl)methyl]amino}-N-(propan-2-yl)-5H-pyrrolo[2,3-b]pyrazine-7-carboxamide] | 29 nM | 2290 nM |
| C=CC(=O)N1CC[C@@H](Nc2cnc3[nH]cc(C(=O)NC(C)C)c3n2)[C@H](O)C1 [Example 196, 2-{[(3R,4R)-1-acryloyl-3-hydroxypiperidin-4-yl]amino}-N-(propan-2-yl)-5H-pyrrolo[2,3-b]pyrazine-7-carboxamide] | 0.3 nM | 30.6 nM |
| C=CC(=O)NC[C@@]12C[C@@H]1CN(c1cnc3[nH]ccc3n1)C2 [Example 197, N-{[(1R,5S)-3-(5H-pyrrolo[2,3-b]pyrazin-2-yl)-3-azabicyclo[3.1.0]hex-1-yl]methyl}prop-2-enamide] | 3490 nM | – |
| C=CC(=O)N[C@H]1C[C@H](Nc2cnc3[nH]cc(C(=O)NC(C)C)c3n2)C1 [Example 198, 2-{[trans-3-(acryloylamino)cyclobutyl]amino}-N-(propan-2-yl)-5H-pyrrolo[2,3-b]pyrazine-7-carboxamide] | 1 nM | 77.6 nM |
| C=CC(=O)N1CCC(Nc2cnc3[nH]cc(-c4ccncc4F)c3n2)CC1 [Example 200, 1-(4-{[7-(3-fluoropyridin-4-yl)-5H-pyrrolo[2,3-b]pyrazin-2-yl]amino}piperidin-1-yl)prop-2-en-1-one] | 0.8 nM | 88.9 nM |
| C=CC(=O)N1CCC(Nc2cnc3[nH]cc(-c4ccnc(C)c4)c3n2)CC1 [Example 201, 1-(4-{[7-(2-methylpyridin-4-yl)-5H-pyrrolo[2,3-b]pyrazin-2-yl]amino}piperidin-1-yl)prop-2-en-1-one] | 0.5 nM | 28 nM |
| C=CC(=O)N1CCC(Nc2cnc3[nH]cc(-c4cncnc4)c3n2)CC1 [Example 202, 1-(4-{[7-(pyrimidin-5-yl)-5H-pyrrolo[2,3-b]pyrazin-2-yl]amino}piperidin-1-yl)prop-2-en-1-one] | 0.9 nM | 99.1 nM |
| C=CC(=O)N1CCC(Nc2cnc3[nH]cc(-c4ccc(S(C)(=O)=O)cc4)c3n2)CC1 [Example 203, 1-[4-({7-[4-(methylsulfonyl)phenyl]-5H-pyrrolo[2,3-b]pyrazin-2-yl}amino)piperidin-1-yl]prop-2-en-1-one] | 2 nM | 148 nM |
| C=CC(=O)N1CCC(Nc2cnc3[nH]cc(-c4cccc(C(=O)NC)c4)c3n2)CC1 [Example 204, 3-{2-[(1-acryloylpiperidin-4-yl)amino]-5H-pyrrolo[2,3-b]pyrazin-7-yl}-N-methylbenzamide] | 0.5 nM | 49.3 nM |
| C=CC(=O)N1CCC(Nc2cnc3[nH]cc(-c4cccnc4)c3n2)CC1 [Example 205, 1-(4-{[7-(pyridin-3-yl)-5H-pyrrolo[2,3-b]pyrazin-2-yl]amino}piperidin-1-yl)prop-2-en-1-one] | 0.5 nM | 14.8 nM |
| C=CC(=O)N1CCC(Nc2cnc3[nH]cc(-c4ccc(F)nc4)c3n2)CC1 [Example 207, 1-(4-{[7-(6-fluoropyridin-3-yl)-5H-pyrrolo[2,3-b]pyrazin-2-yl]amino}piperidin-1-yl)prop-2-en-1-one] | 0.3 nM | 28.9 nM |
| C=CC(=O)N1CCC(Nc2cnc3[nH]cc(-c4cnc(N5CCOCC5)nc4)c3n2)CC1 [Example 208, 1-[4-({7-[2-(morpholin-4-yl)pyrimidin-5-yl]-5H-pyrrolo[2,3-b]pyrazin-2-yl}amino)piperidin-1-yl]prop-2-en-1-one] | 5.9 nM | 576 nM |
| C=CC(=O)N1CCC(Nc2cnc3[nH]cc(-c4ccccc4)c3n2)CC1 [Example 209, 1-{4-[(7-phenyl-5H-pyrrolo[2,3-b]pyrazin-2-yl)amino]piperidin-1-yl}prop-2-en-1-one] | 0.2 nM | 14.3 nM |

| SMILES | IC50 [1] | IC50 [2] |
| --- | --- | --- |
| C=CC(=O)N1CCC(Nc2cnc3[nH]cc(-c4cnc(OC)nc4)c3n2)CC1 [Example 210, 1-(4-{[7-(2-methoxypyrimidin-5-yl)-5H-pyrrolo[2,3-b]pyrazin-2-yl]amino}piperidin-1-yl)prop-2-en-1-one] | 0.4 nM | 45.4 nM |
| C=CC(=O)N1CCC(Nc2cnc3[nH]cc(-c4ccnc(F)c4)c3n2)CC1 [Example 211, 1-(4-{[7-(2-fluoropyridin-4-yl)-5H-pyrrolo[2,3-b]pyrazin-2-yl]amino}piperidin-1-yl)prop-2-en-1-one] | 0.2 nM | 34.2 nM |
| C=CC(=O)N1CCC(Nc2cnc3[nH]cc(-c4cncc(F)c4)c3n2)CC1 [Example 212, 1-(4-{[7-(5-fluoropyridin-3-yl)-5H-pyrrolo[2,3-b]pyrazin-2-yl]amino}piperidin-1-yl)prop-2-en-1-one] | 0.3 nM | 16 nM |
| C=CC(=O)N1CCC(Oc2cnc3[nH]cc(-c4ccc(C)nc4)c3n2)CC1 [Example 214, 1-(4-{[7-(6-methylpyridin-3-yl)-5H-pyrrolo[2,3-b]pyrazin-2-yl]oxy}piperidin-1-yl)prop-2-en-1-one] | 2.3 nM | 308 nM |
| C=CC(=O)N1CCC(Oc2cnc3[nH]cc(-c4cncnc4)c3n2)CC1 [Example 215, 1-(4-{[7-(pyrimidin-5-yl)-5H-pyrrolo[2,3-b]pyrazin-2-yl]oxy}piperidin-1-yl)prop-2-en-1-one] | 2.9 nM | 386 nM |
| C=CC(=O)N1CCC(Oc2cnc3[nH]cc(-c4ccc(C#N)nc4)c3n2)CC1 [Example 216, 5-{2-[(1-acryloylpiperidin-4-yl)oxy]-5H-pyrrolo[2,3-b]pyrazin-7-yl}pyridine-2-carbonitrile] | 12.5 nM | 1030 nM |
| C=CC(=O)N1CCC(Oc2cnc3[nH]cc(-c4cnc(OC)nc4)c3n2)CC1 [Example 219, 1-(4-{[7-(2-methoxypyrimidin-5-yl)-5H-pyrrolo[2,3-b]pyrazin-2-yl]oxy}piperidin-1-yl)prop-2-en-1-one] | 1.7 nM | 153 nM |
| C=CC(=O)N1CCC(Oc2cnc3[nH]cc(-c4ccnc(F)c4)c3n2)CC1 [Example 222, 1-(4-{[7-(2-fluoropyridin-4-yl)-5H-pyrrolo[2,3-b]pyrazin-2-yl]oxy}piperidin-1-yl)prop-2-en-1-one] | 1.1 nM | 125 nM |
| C=CC(=O)N1CCC(Oc2cnc3[nH]cc(-c4c(C)noc4C)c3n2)CC1 [Example 224, 1-(4-{[7-(3,5-dimethyl-1,2-oxazol-4-yl)-5H-pyrrolo[2,3-b]pyrazin-2-yl]oxy}piperidin-1-yl)prop-2-en-1-one] | 17.6 nM | 1540 nM |
| C=CC(=O)N1CCC(Oc2cnc3[nH]cc(-c4cccc(C(=O)NC)c4)c3n2)CC1 [Example 227, 3-{2-[(1-acryloylpiperidin-4-yl)oxy]-5H-pyrrolo[2,3-b]pyrazin-7-yl}-N-methylbenzamide] | 0.9 nM | 71.8 nM |
| C=CC(=O)N1CCC(Oc2cnc3[nH]cc(-c4ccc(S(C)(=O)=O)cc4)c3n2)CC1 [Example 229, 1-[4-({7-[4-(methylsulfonyl)phenyl]-5H-pyrrolo[2,3-b]pyrazin-2-yl}oxy)piperidin-1-yl]prop-2-en-1-one] | 7.1 nM | 745 nM |
| C=CC(=O)N1CCC(Nc2cnc3[nH]cc(C(=O)NCC4(O)CCC4)c3n2)CC1 [Example 231, 2-[(1-acryloylpiperidin-4-yl)amino]-N-[(1-hydroxycyclobutyl)methyl]-5H-pyrrolo[2,3-b]pyrazine-7-carboxamide] | 0.6 nM | 52.6 nM |
| C=CC(=O)N1CCC(Nc2cnc3[nH]cc(C(=O)NCC4(O)CCCC4)c3n2)CC1 [Example 232, 2-[(1-acryloylpiperidin-4-yl)amino]-N-[(1-hydroxycyclopentyl)methyl]-5H-pyrrolo[2,3-b]pyrazine-7-carboxamide] | 0.3 nM | 25 nM |
| C=CC(=O)N1CCC(Nc2cnc3[nH]cc(C(=O)NC4CCCC4(F)F)c3n2)CC1 (stereo not drawn) [Example 234, 2-[(1-acryloylpiperidin-4-yl)amino]-N-(2,2-difluorocyclopentyl)-5H-pyrrolo[2,3-b]pyrazine-7-carboxamide] | < 0.3 nM | 4.9 nM |
| C=CC(=O)N1CCC(Nc2cnc3[nH]cc(C(=O)NC4CCCC(F)(F)C4)c3n2)CC1 (stereo not drawn) [Example 236, 2-[(1-acryloylpiperidin-4-yl)amino]-N-(3,3-difluorocyclohexyl)-5H-pyrrolo[2,3-b]pyrazine-7-carboxamide] | 0.1 nM | 8.3 nM |
| C=CC(=O)N1CCC(Nc2cnc3[nH]cc(C(=O)N[C@@H]4CCC[C@H]4F)c3n2)CC1 [Example 237, 2-[(1-acryloylpiperidin-4-yl)amino]-N-[(1R,2R)-2-fluorocyclopentyl]-5H-pyrrolo[2,3-b]pyrazine-7-carboxamide] | 0.2 nM | 7.8 nM |
| C=CC(=O)N1CCC(Nc2cnc3[nH]cc(C(=O)NCC4CC(F)(F)C4)c3n2)CC1 [Example 238, 2-[(1-acryloylpiperidin-4-yl)amino]-N-[(3,3-difluorocyclobutyl)methyl]-5H-pyrrolo[2,3-b]pyrazine-7-carboxamide] | 0.2 nM | 9.3 nM |
